Experimental data taken from patent publication US5219854A, “Blood platelet-decreasing method” (Nissan Chemical Industries Ltd., priority 1991, dated 1993).

Tests used:
[1] = tested on: blood platelet count; test: Change of blood platelet count at the time of repeated administration of Compound A; assay type: in vivo, human (healthy adult males)
Experimental: (§1) To each of six healthy adult males (23 to 32 years age, average: 28 years age), two tablets each containing 20 mg of 4-bromo-5-(3-ethoxy-4-methoxybenzylamino)-3(2H)-pyridazinone (Compound A) were orally administered (40 mg) three times a day (120 mg) in the morning, noon and evening for 7 days (on the 7th day, administered only in the morning). Examinations were conducted with respect to the following four items from the time before the administration to the time until the 29th day after the termination of administration.
(1) Hematological Examination
(§2) Erythrocyte count, leukocyte count, hemoglobin quantity, hematocrit value, blood platelet count, reticulocyte count, leukocyte fraction and prothrombin time

[2] = Subjective symptoms, diagnosis by doctor, scientific and clinical examination during repeated oral administration; assay type: in vivo, human (healthy adult males); conditions: oral 40 mg three times a day for 7 days; until 29th day after the termination
Experimental: as §1
Everyday during the period of examination, each testee records the subjective symptoms.
A doctor makes diagnoses by asking, or ansculating and percussioning, and records their observations.
Blood pressure, pulse rate, body temperature, breathing rate, ECG (12 derivatives), pulmonary function (FVC, FEV1.0%), and visual or acoustic observation
as §2
Total protein, albumin, A/G ratio (protein fraction), BUN, creatinine, uric acid, total cholesterol, neutral fats, Na, K, Cl, Al-P, LAP, GOT, GPT, LDH, γ-GTP, ZTT, TTT, CPK, total bilirubin, direct bilirubin and blood sugar
Specific gravity, pH, bilirubin, urobilinogen, ketone body, sugar, protein and sedimentation

[3] = Acute toxicity test after single oral administration, mouse; conditions: in vivo, mouse (ICR strain, 6 weeks old), read-out: 50% lethal dose (LD50)
Experimental: (§3) These compounds have low toxicities and thus may be sufficiently used for medical products. For example, the 50% lethal dose (LD50) in the acute toxicity tests after single oral administration of 4 brome-5-(3-ethoxy-4-methoxybenzylamino)-3(2H)-pyridazinone as a typical compound thereof, was 2,000 mg/kg with respect to each of mouse (ICR strain, 6 weeks old), rat (SD strain, 6 weeks old) and dog (beagle, 6 months old).

[4] = Acute toxicity test after single oral administration, rat; conditions: in vivo, rat (SD strain, 6 weeks old), read-out: 50% lethal dose (LD50)
Experimental: as §3

[5] = Acute toxicity test after single oral administration, dog; conditions: in vivo, dog (beagle, 6 months old), read-out: 50% lethal dose (LD50)
Experimental: as §3

Q: With `CCOc1cc(CNc2cn[nH]c(=O)c2Br)ccc1OC` [Compound A, 4-bromo-5-(3-ethoxy-4-methoxybenzylamino)-3(2H)-pyridazinone] as the molecule, how does the “Blood platelet count, average value ± a standard deviation” value ([1]; 1st day after the termination of administration, oral 40 mg three times a day for 7 days, ***p < 0.001 vs before administration (paired t-test)) read?
A: 14.1 ± 2.0 ×10^4 /μl

Q: What about the “Blood platelet count, average value ± a standard deviation” value ([1]; 6th day after the termination of administration, oral 40 mg three times a day for 7 days, **p < 0.01 vs before administration (paired t-test)) of the same molecule?
A: 20.4 ± 2.2 ×10^4 /μl

Q: What about the “Blood platelet count, average value ± a standard deviation” value ([1]; 29th day after the termination of administration, oral 40 mg three times a day for 7 days) of the same molecule?
A: 29.2 ± 3.9 ×10^4 /μl

Q: And the “Blood platelet count, average value ± a standard deviation” value ([1]; 3 days after the initiation of administration, oral 40 mg three times a day (120 mg/day), **p < 0.01 vs before administration (paired t-test))?
A: 25.0 ± 2.7 ×10^4 /μl

Q: What about the “Blood platelet count, average value ± a standard deviation” value ([1]; before the initiation of administration (baseline), six healthy adult males) of the same molecule?
A: 27.6 ± 2.6 ×10^4 /μl

Q: And the “Symptoms or changes in all items of examinations other than the blood platelet count” value [2]?
A: no problematic symptom or change has been observed

Q: And the LD50 [3]?
A: 2000 mg/kg

Q: What about the LD50 [4] of the same molecule?
A: 2000 mg/kg

Q: And the LD50 [5]?
A: 2000 mg/kg
